In patent US9789195B2, “Particulate drug delivery methods” (priority 2007, dated 2017):

System: PC-3 cells
Assay: MTT assay in PC-3 cells, 24 hr incubation
Format: cell-based
Conditions: Homo sapiens, NCs of similar sizes (~100 nm)
Procedure: Characterization and Evaluation of Ptxl-PLA NC: NC sizes were characterized by a ZetaPALS dynamic light scattering detector (Brookhaven Instruments, Holtsville, N.Y., USA) or by SEM. The resulting NCs were purified by ultrafiltration; their in vitro toxicities were then evaluated using MTT assay in PC-3 cells (24 hr incubation at 37 C). To determine the release kinetics of Ptxl-PLA, a PBS solution of NCs was equally divided into several portions and then incubated at 37 C. At scheduled time, the release study was terminated. DMF solution was added to dissolve all precipitation. All the samples were then dried, re-dissolved in DCM and reacted with Bu4NBH4 for 1.5 hours. A drop of acetic acid was added into the solution. The solution was stirred for 20 min before the solvent was evaporated. The residual solid was reconstituted in acetonitrile for RP HPLC analysis (Curosil, 250×4.6 mm, 5μ; Phenomenex, Torrence, Calif., USA).
PC-3 cells were plated in a 96-well plate for 24 h (10,000 cells per well). On the day of experiments, cells were washed with prewarmed PBS and different concentration of fresh prepared NCs (prepared in 1×PBS) was added. The control cells were incubated with medium. […] The resulting crystals were dissolved and final cell viability was assessed colorimetrically by microplate reader at 655 nm. […]

IC50: 87 nM
SMILES: CC(=O)O[C@H]1C(=O)[C@@]2(C)[C@H]([C@H](OC(=O)c3ccccc3)[C@]3(O)C[C@H](OC(=O)[C@H](O)[C@@H](NC(=O)c4ccccc4)c4ccccc4)C(C)=C1C3(C)C)[C@]1(OC(C)=O)CO[C@@H]1C[C@@H]2O [Ptxl, paclitaxel]
